Publication PMC6153520, “Proteasome inhibition and mechanism of resistance to a synthetic, library-based hexapeptide” (Investigational New Drugs, 2018)
Where a SMILES comes first, the peptide text is derived from it. [ ]: non-standard residue; d: D form. The star is where a group is joined. His(τ-Bzl) = N[C@@H](Cc1cn(Cc2ccccc2)cn1)C(=O)O; Nle = CCCC[C@H](N)C(=O)O; NHBn = c1ccc(CN*)cc1; Bn = c1ccc(C*)cc1; OtBu = CC(C)(C)O*; tBu = CC(C)(C)*

Assays:
[1] = target: T1, chymotrypsin-like proteasome activity (Homo sapiens, UniProt P28074); assay: Proteasome-Glo cell-based assay in intact THP1 cells
T1 construct: chymotrypsin-like proteasome activity in intact THP1 cells after 1 h exposure; endogenous in cells; host or cells: THP1 (wild type)

THP1/WT = format: cell-based, human
Description: (§1) Human monocytic/macrophage THP1 cells (ATTC, Manassas, USA) were cultured in RPMI-1640 medium supplemented with 5% fetal calf serum, 20 mM HEPES, 2 mM glutamine and 100 μg/ml penicillin/ streptomycin at 5% CO2 and 37 °C. Cell cultures were seeded at a density of 3 × 10^5 cells/ml and refreshed twice weekly. […] Some specific experiments also included THP1/BTZ100 cells that were cultured in the absence of BTZ for 6 months (further designated as THP1/BTZ (−100) cells). Mouse thymoma EL4 and human multiple myeloma H929 cells were cultured in RPMI-1640 medium supplemented with 8% fetal calf serum and 100 μg/ml penicillin/streptomycin at 5% CO2 and 37 °C.
(§2) Evaluation of drug sensitivity was carried out as described before. Cells were seeded at an initial density of 1.25 × 10^5 cells/ml in individual wells of a 24-well plate containing up to 50 μl of drug solutions. Inhibition of cell growth was determined after 72 h of incubation at 37 °C by determining the number of viable cells […] using trypan blue exclusion. The drug concentration required to inhibit cell growth by 50% compared to untreated controls was defined as the IC50.

THP1/BTZ (−100) cells = format: cell-based, human; conditions: 72 h
Description: as §1, §2

THP1/BTZ100 = format: cell-based, human; conditions: 72 h
Description: as §1, §2

THP1/BTZ200 cells = assay: Apoptosis assay (Annexin-V/7-AAD flow cytometry); format: cell-based, human; conditions: 24 h, 4A6 over 0–25 μM
Description: (§3) Induction of apoptosis was analyzed by flow cytometry using APOPTEST™-FITC A700 (VPS Diagnostics, Hoeven, the Netherlands) according to the instructions of the manufacturer. In short, induction of apoptosis was determined after 24 h’ drug exposure. One million cells were harvested and washed 3 times with ice-cold PBS. The cell pellet was incubated for 30 min with 7-Amino-actinomycin D (7-AAD) on ice followed by incubation with Annexin-V according to the instructions of the manufacturer. Annexin-V (early apoptosis) and 7-AAD (late apoptosis) staining was measured by flow cytometry (Beckton & Dickinson, FACScalibur) and analysed using FCSexpress V3 software (Denovo software, Thornhill, Canada).

THP1/WT cells = assay: Apoptosis assay (Annexin-V/7-AAD flow cytometry); format: cell-based, human; conditions: 24 h exposure
Description: as §3

[2] = system: P-glycoprotein (Pgp/ABCB1); set-up: method as in PMID 11289130; conditions: ref [32]; cited from earlier work
[3] = system: caspase-like proteasome activity; assay: Proteasome activity in THP1 cell extracts (fluorogenic substrate); format: biochemical, human; conditions: 1–100 μM, 1 h exposure
Description: (§4) Chymotrypsin-like, trypsin-like and caspase-like proteolytic activities of the proteasome were determined in freshly prepared cell lysates as described previously. Five million untreated or bortezomib-exposed THP1 cells were washed 3 times with ice-cold PBS and pelleted by centrifugation (5 min, 12,000 RPM, 4 °C). Cell pellets were then resuspended in an ATP-containing lysis buffer; 10 mM Tris-HCl buffer (pH 7.8) containing 5 mM ATP, 0.5 mM DTT and 5 mM MgCl2, and kept on ice for 10 min. For complete lysis, cells were sonicated (MSE sonicator, amplitude 7, for 3 × 5 s with 20 s time intervals at 4 °C) followed by centrifugation (5 min, 12,000 RPM, 4 °C) to remove cell debris. The supernatant was collected and protein concentration was determined using the Bio-Rad protein assay. […] The release of amc (7-amino-4-methyl-coumarin) was monitored online over a 2-h time period at 37 °C with 5 min intervals. Fluorescence was measured on a Tecan SpectraFluor apparatus (Giessen, The Netherlands) using excitation and emission wavelengths of 360 and 465 nm, respectively. Proteolytic activity was calculated from the slopes of the linear portion of the curves. All results were expressed as percentage relative to untreated THP1/WT cells (100%). […]

[4] = system: trypsin-like proteasome activity; assay: as above; format: biochemical, human; conditions: 1–100 μM, 1 h exposure
Description: as §4

- potency fold lower than BTZ, chymotrypsin-like proteasome activity [1]: 28 fold
- IC50 (THP1/WT; 72 h): 0.26 ± 0.06 µM
- IC50 (THP1/BTZ (−100) cells): 10 µM
- IC50 (THP1/BTZ100): > 25 µM
SMILES: CCCC[C@H](NC(=O)[C@@H](NC(=O)[C@H](Cc1cn(Cc2ccccc2)cn1)NC(=O)[C@@H](NC(C)=O)[C@@H](C)OC(C)(C)C)[C@@H](C)OCc1ccccc1)C(=O)N[C@@H](CCC(=O)OC(C)(C)C)C(=O)NCC(=O)NCc1ccccc1 [4A6, Ac-Thr(tBu)-His(Bzl)-Thr(Bzl)-Nle-Glu(OtBu)-Gly-Bza] (Ac-T(tBu)[His(τ-Bzl)]T(Bn)[Nle]E(OtBu)G-NHBn)
- [Resistance Factor] THP1/WT (THP1/WT; reference value in square brackets): 1
- [Resistance Factor] THP1/BTZ100 (THP1/BTZ100; relative to IC50 in THP1/WT): 117
- induction of apoptosis (THP1/BTZ200 cells): none
- induction of apoptosis (THP1/WT cells): efficient induction of apoptosis
- ability to reverse efflux pump MDR (ABCB1) [2]: lacked the ability to reverse efflux pump MDR
- substrate of MDR efflux transporter ABCB1 [2]: substrate
- inhibitory effect on caspase-like activity [3]: no inhibitory effect
- inhibitory effect on trypsin-like activity [4]: no inhibitory effect
